Source: patent publication US12226412B2, “Heteroaryl-ketone fused azadecalin glucocorticoid receptor modulators” (Corcept Therapeutics, Inc., priority 2012, dated 2025)
Read-outs that look alike come from different tables or passages of the source.

Experiments:
human recombinant GR = target: T1, human recombinant GR (Homo sapiens, UniProt P04150); test: Human glucocorticoid receptor (GR) fluorescence polarisation (FP) binding assay
T1 construct: purchased PanVera P2812
T1 sequence (P04150 1-777): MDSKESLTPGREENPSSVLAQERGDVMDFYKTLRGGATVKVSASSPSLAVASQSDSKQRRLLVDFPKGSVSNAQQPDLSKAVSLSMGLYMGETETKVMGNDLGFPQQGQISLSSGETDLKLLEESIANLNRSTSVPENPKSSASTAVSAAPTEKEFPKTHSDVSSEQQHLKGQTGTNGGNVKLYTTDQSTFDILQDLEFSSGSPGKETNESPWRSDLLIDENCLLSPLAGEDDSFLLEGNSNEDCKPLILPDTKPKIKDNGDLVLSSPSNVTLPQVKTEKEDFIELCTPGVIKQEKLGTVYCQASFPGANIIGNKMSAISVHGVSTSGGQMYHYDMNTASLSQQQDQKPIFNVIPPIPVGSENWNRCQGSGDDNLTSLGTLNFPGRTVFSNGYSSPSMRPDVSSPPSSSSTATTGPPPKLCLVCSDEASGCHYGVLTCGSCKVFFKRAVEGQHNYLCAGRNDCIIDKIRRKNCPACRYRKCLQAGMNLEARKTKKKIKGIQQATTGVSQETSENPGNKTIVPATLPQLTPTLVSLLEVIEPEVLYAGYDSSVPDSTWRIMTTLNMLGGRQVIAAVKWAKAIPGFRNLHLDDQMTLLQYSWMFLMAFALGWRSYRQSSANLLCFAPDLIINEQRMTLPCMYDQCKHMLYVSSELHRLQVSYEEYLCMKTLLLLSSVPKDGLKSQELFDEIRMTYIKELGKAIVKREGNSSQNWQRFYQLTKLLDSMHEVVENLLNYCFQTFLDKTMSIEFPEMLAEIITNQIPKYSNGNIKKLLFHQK
Description: Human Glucocorticoid Receptor (GR) Fluorescence Polarisation (FP) Binding Assay
The following is a description of a FP assay for measuring compound inhibition of labelled glucocorticoid binding to the human recombinant GR.
The binding affinity of test compounds was determined using a FP binding assay using human recombinant GR (PanVera P2812) and a fluorescent labelled glucocorticoid ligand (Fluorome GS Red) (PanVera P2894). The presence of inhibitors prevents the formation of a GS Red/GR complex resulting in a decrease in the measured polarisation value. The change in polarisation value in the presence of test compounds is used to calculate the binding affinity of the compound for GR.
This assay was performed in 384 well, black, round-bottom, polypropylene micro titre plates in a final volume of 20 μl. The assay contained 5 μl 1 nM GR (final concentration), 5 μl 0.5 nM Fluorome GS Red (final concentration) in the presence of 10 μl test compounds. Positive control wells (high polarisation) receive, 10 μl 2% (v: v) DMSO vehicle (1% (v/v) final concentration)+5 μl 1 nM GR and 5 μl 0.5 nM Fluorome GS Red. […] Assay blank background wells (used for normalisation) receive 15 μl 1× GS screening buffer+5 μl GR.
Compounds were prepared as solubilised solids at 10 mM in DMSO. On the day of assay, an 8 point half-log serial dilution (55 μl DMSO+25 μl compound solution) was prepared. A 1:50 dilution (1 μl compound solution+49 μl 1× GR screening buffer) was prepared for each compound. The compounds were prepared at 2× final assay concentration.
The plates were mixed and incubated for 4 hour at room temperature.
10× GR screening buffer (100 mM potassium phosphate pH 7.4, 200 mM Na2MoO4, 1 mM EDTA, 20% (v/v) DMSO). To prepare 1× GR screening buffer, combine 1 ml 10× GR screening buffer (PanVera P2814)+1 ml stabilising peptide (PanVera P2815)+7.95 ml 4° C. MQ water. Add 50 μl 1M DTT, vortex and place on ice until use.

[1] = tested on: induction of TAT by dexamethasone in HepG2 cells; test: HepG2 tyrosine aminotransferase (TAT) assay; assay type: cell-based, human
Description: Example 21. HepG2 Tyrosine Aminotransferase (TAT) Assay
Glucocorticoid mediated activation of TAT occurs by transactivation of glucocorticoid response elements in the TAT promoter by glucocorticoid receptor agonist complex.
TAT activity was measured as outlined in the literature by A. Ali et al., J. Med. Chem., 2004, 47, 2441-2452.
HepG2 cells were cultured using MEME media supplemented with 10% (v/v) foetal bovine serum; 2 mM L-glutamine and 1% (v/v) NEAA at 37° C., 5%/95% (v/v) CO2/air. The HepG2 cells were counted and adjusted to yield a density of 0.125×10^6 cells/ml in RPMI 1640 without phenol red, 10% (v/v) charcoal stripped FBS, 2 mM L-glutamine and seeded at 25,000 cells/well in 200 μl into 96 well, sterile, tissue culture micro titre plates, and incubated at 37° C., 5% CO2 for 24 hours
Growth media was removed and replaced with assay media {RPMI 1640 without phenol red, 2 mM L-glutamine+10 μM forskolin}. […] Compounds were serially half log diluted in 100% (v/v) dimethylsupfoxide from a 10 mM stock.
HepG2 cells were then lysed with 30 μl of cell lysis buffer containing a protease inhibitor cocktail for 15 minutes at 4° C. 155 μl of substrate mixture was then added containing 5.4 mM Tyrosine sodium salt, 10.8 mM alpha ketoglutarate and 0.06 mM pyridoxal 5′ phosphate in 0.1M potassium phosphate buffer (pH 7.4). After 2 hours incubation at 37° C. the reaction was terminated by the addition of 15 μl of 10M aqueous potassium hydroxide solution, and the plates incubated for a further 30 minutes at 37° C. The TAT activity product was measured by absorbance at […].
[compound] and fitting the data to a 4 parameter logistic equation.

[2] = human recombinant GR, fluorescence polarisation binding assay, read-out: GR binding
[3] = HepG2 cells, challenge of 100 nM dexamethasone, Ki from IC50 by Cheng and Prusoff equation

SMILES | Ki (human recombinant GR; [2]) [nM] | Ki [1, 3] [nM] | Ki (human recombinant GR) [nM] | Ki [1] [nM]
COCCn1cc(S(=O)(=O)N2CCC3=Cc4c(cnn4-c4ccc(F)cc4)C[C@]3(C(=O)c3ccccn3)C2)cn1 [Example 11CB, (R)-(1-(4-fluorophenyl)-6-((1-(2-methoxyethyl)-1H-pyrazol-4-yl)sulfonyl)-4,4a,5,6,7,8-hexahydro-1H-pyrazolo[3,4-g]isoquinolin-4a-yl)(pyridin-2-yl)methanone] | < 0.5 | < 20 | – | –
CCn1cc(S(=O)(=O)N2CCC3=Cc4c(cnn4-c4ccc(F)cc4)C[C@]3(C(=O)c3ccccn3)C2)cn1 [Example 11AY, (R)-(6-((1-ethyl-1H-pyrazol-4-yl)sulfonyl)-1-(4-fluorophenyl)-4,4a,5,6,7,8-hexahydro-1H-pyrazolo[3,4-g]isoquinolin-4a-yl)(pyridin-2-yl)methanone] | < 0.5 | 20 to 100 | – | –
CCc1ccnc(C(=O)[C@]23Cc4cnn(-c5ccc(F)cc5)c4C=C2CCN(S(=O)(=O)c2cccc(C#N)c2)C3)c1 [Example 11AU, (R)-3-((4a-(4-ethylpicolinoyl)-1-(4-fluorophenyl)-4a,5,7,8-tetrahydro-1H-pyrazolo [3,4-g]isoquinolin-6 (4H)-yl)sulfonyl)benzonitrile] | < 0.5 | < 20 | – | –
Cc1cc(C)cc(S(=O)(=O)N2CCC3=Cc4c(cnn4-c4ccc(F)cc4)C[C@]3(C(=O)c3ccccn3)C2)c1 [Example 11N, (R)-(6-((3,5-dimethylphenyl)sulfonyl)-1-(4-fluorophenyl)-4,4a,5,6,7,8-hexahydro-1H-pyrazolo[3,4-g]isoquinolin-4a-yl)(pyridin-2-yl)methanone] | < 0.5 | < 20 | – | –
O=C(c1nccs1)[C@]12Cc3cnn(-c4ccc(F)cc4)c3C=C1CCN(S(=O)(=O)c1ccc(Cl)c(Cl)c1)C2 [Example 12N, (R)-(6-((3,4-dichlorophenyl)sulfonyl)-1-(4-fluorophenyl)-4,4a,5,6,7,8-hexahydro-1H-pyrazolo[3,4-g]isoquinolin-4a-yl)(thiazol-2-yl)methanone] | 0.5 to 1 | < 20 | – | –
CCCn1ncc(S(=O)(=O)N2CCC3=Cc4c(cnn4-c4ccc(F)cc4)C[C@]3(C(=O)c3cscn3)C2)n1 [Example 11CQ, (R)-(1-(4-fluorophenyl)-6-((2-propyl-2H-1,2,3-triazol-4-yl)sulfonyl)-4,4a,5,6,7,8-hexahydro-1H-pyrazolo[3,4-g]isoquinolin-4a-yl)(thiazol-4-yl)methanone] | < 0.5 | < 20 | – | –
CN(C)C(=O)c1cccc(S(=O)(=O)N2CCC3=Cc4c(cnn4-c4ccc(F)cc4)C[C@]3(C(=O)c3ccccn3)C2)c1 [Example 14, (R)-3-((1-(4-fluorophenyl)-4a-picolinoyl-4a,5,7,8-tetrahydro-1H-pyrazolo[3,4-g]isoquinolin-6 (4H)-yl)sulfonyl)-N,N-dimethylbenzamide] | < 0.5 | 20 to 100 | – | –
Cn1cc(S(=O)(=O)N2CCC3=Cc4c(cnn4-c4ccc(F)cc4)C[C@]3(C(=O)c3ccccn3)C2)c(C(F)(F)F)n1 [Example 11BP, (R)-(1-(4-fluorophenyl)-6-((1-methyl-3-(trifluoromethyl)-1H-pyrazol-4-yl)sulfonyl)-4,4a,5,6,7,8-hexahydro-1H-pyrazolo[3,4-g]isoquinolin-4a-yl)(pyridin-2-yl)methanone] | < 0.5 | ≥ 100 | – | –
Cc1cccc(S(=O)(=O)N2CCC3=Cc4c(cnn4-c4ccc(F)cc4)C[C@]3(C(=O)c3ccccn3)C2)c1 [Example 2E, (R)-(1-(4-fluorophenyl)-6-(m-tolylsulfonyl)-4,4a,5,6,7,8-hexahydro-1H-pyrazolo[3,4-g]isoquinolin-4a-yl)(pyridin-2-yl)methanone] | – | – | < 0.5 | < 20
O=C(c1ccccn1)[C@]12Cc3cnn(-c4ccccc4)c3C=C1CCN(S(=O)(=O)c1ccc(Cl)c(Cl)c1)C2 [Example 15B, (R)-(6-((3,4-dichlorophenyl)sulfonyl)-1-phenyl-4,4a,5,6,7,8-hexahydro-1H-pyrazolo[3,4-g]isoquinolin-4a-yl)(pyridin-2-yl)methanone] | < 0.5 | < 20 | – | –
Cn1ccnc1C(=O)[C@]12Cc3cnn(-c4ccc(F)cc4)c3C=C1CCN(S(=O)(=O)c1ccc(C(F)(F)F)cc1)C2 [Example 1A, (R)-(1-(4-fluorophenyl)-6-((4-(trifluoromethyl)phenyl)sulfonyl)-4,4a,5,6,7,8-hexahydro-1H-pyrazolo[3,4-g]isoquinolin-4a-yl)(1-methyl-1H-imidazol-2-yl)methanone] | 0.5 to 1 | 20 to 100 | – | –
CCn1nncc1S(=O)(=O)N1CCC2=Cc3c(cnn3-c3ccc(F)cc3)C[C@]2(C(=O)c2ccccn2)C1 [Example 11CI, (R)-(6-((1-ethyl-1H-1,2,3-triazol-5-yl)sulfonyl)-1-(4-fluorophenyl)-4,4a,5,6,7,8-hexahydro-1H-pyrazolo[3,4-g]isoquinolin-4a-yl)(pyridin-2-yl)methanone] | > 1 | 20 to 100 | – | –
Cc1ccnc(C(=O)[C@]23Cc4cnn(-c5ccc(F)cc5)c4C=C2CCN(S(=O)(=O)c2cc(F)c(F)c(F)c2)C3)c1 [Example 11X, (R)-(1-(4-fluorophenyl)-6-((3,4,5-trifluorophenyl)sulfonyl)-4,4a,5,6,7,8-hexahydro-1H-pyrazolo[3,4-g]isoquinolin-4a-yl)(4-methylpyridin-2-yl)methanone] | < 0.5 | < 20 | – | –
CC(C)n1nncc1S(=O)(=O)N1CCC2=Cc3c(cnn3-c3ccc(F)cc3)C[C@]2(C(=O)c2ccccn2)C1 [Example 11CU, (R)-(1-(4-fluorophenyl)-6-((1-isopropyl-1H-1,2,3-triazol-5-yl)sulfonyl)-4,4a,5,6,7,8-hexahydro-1H-pyrazolo[3,4-g]isoquinolin-4a-yl)(pyridin-2-yl)methanone] | 0.5 to 1 | 20 to 100 | – | –
Cc1ccnc(C(=O)[C@]23Cc4cnn(-c5ccc(F)cc5)c4C=C2CCN(S(=O)(=O)c2ccc(F)c(C)c2)C3)c1 [Example 11AL, (R)-(6-((4-fluoro-3-methylphenyl)sulfonyl)-1-(4-fluorophenyl)-4,4a,5,6,7,8-hexahydro-1H-pyrazolo[3,4-g]isoquinolin-4a-yl)(4-methylpyridin-2-yl)methanone] | < 0.5 | < 20 | – | –
